Test results published in US6881824B1, “Peptides suitable for use in antigen specific immunosuppressive therapy” (Akzo Nobel N.V., priority 1996, dated 2005).
Ends that are not written are not given here.

Assays:
[1] = target: T1, DR4 (DRB1*0401) molecules (Homo sapiens, UniProt P01903+P01911, A100K/A169T/F76Y/I96L/K127E/L162R/M171V/N62H/P40V/Q125Y/R42H/S133A/S149N/S66Y/V115G/V209L/W38E); test: Peptide HLA-DR binding assay (semi-quantitative competition binding); conditions: for IC50: Table IIIA, competition with biotinylated marker peptide HA 309 Y→F, pH5.0, 44 hr RT
T1 construct: molecules were purified from the homozygous EBV-transformed human B lymphoblastoid cell lines Huly138IC2 and BM92 using the mAb; endogenous in cells
Experimental: DR4 (DRB1*0401) and DR4 (DRB1*0404) molecules were purified from the homozygous EBV-transformed human B lymphoblastoid cell lines Huly138IC2 and BM92 using the mAb t243, directed against a monomorphic determinant on the DR-complex (Lampson, L. A and R. Levy (1980), J. Immunol. 125:293 299).
The peptide binding studies were performed using a semi-quantitative competition binding assay (Joosten et al 1994, Int. Immunol. 6, 751). Briefly, purified HLA-DR molecules (30 nM DR4(DRB1*0401) or 15 nM DR4 (DRB1*0404) were incubated at pH5.0 with 50 nM biotinylated marker peptide (HA 309y→F) and a concentration range of competitor peptide in a final volume of 25 μl binding buffer (PBS containing 0.01% […], 0.05% NP-40, 5% DMSO, 1 mM AEBSF, 1 mM N-ethyl maleimide, 8 mM EDTA and 10 μm pepstatin A). After 44 hr of incubation at RT, HLA DR bound marker peptide was separated from free marker peptide using a 96 well vacuum dotblot apparatus (Hybri. dot, BRL) and a nitrocellulose membrane (Hybond ECL, Amersham, UK). The nitrocellulose filters were blocked with 0.5% DNA blocking reagent (Boehringer) in 0.1 M maleic acid, 150 mM NaCl, pH7.5.
After 0.5-1 hr, the filters were washed in PBS, 0.05% Tween 20 (Sigma) and incubated with Strepcavidin-HRPO (Southern Biotechnology) in a 1:10.000 dilution. Biotinylated peptides were detected by enhanced chemiluminescence using a Western Blot ECL kit (Amersham). Exposure of the preflashed films (Hyperfilm-ECL, Amersham) was for 10 min. The spots were analysed by scanning the films and using Image Quant/Excel software for analysis.
The affinity of a given peptide for binding DRB1*0401-encoded molecules was related to competition with the marker peptide. This relative binding affinity was defined as the peptide concentration at which the signal was reduced to 50% (IC50).

[2] = system: PBMC from RA patients carrying the DR4 (DRB1*0401) specificity; test: Peptide-induced proliferative responses of PBMC from RA patients; type: cell-based, human; conditions: 100 and 10 microgram/ml, 7 days, 3H-thymidine incorporation; for Peptide-induced proliferative response of PBMC, RA 286: RA patient 286, 0401, R; for Peptide-induced proliferative response of PBMC, RA 191: RA patient 191, 0401, R
Experimental: This study included 7 DR4(DRB1*0401)-positive patients diagnosed as suffering from RA according to the ARA criteria (Arnett et al., (1988), Arthritis Rheum. 31, 315). Peripheral blood samples were obtained with informed consent. There were five women and two men aged 46-79 years. Their duration of disease ranged from over 10 to over 30 years. Three out of 7 patients had at least 3 swollen joints. […] All patients were on medication: Four patients were treated with prednisone, three patients received anti-rheumatic agents and 4 patients were treated with NSAID's as well.
In order to identify T-cell epitopes within HC gp-39, 59 peptides of 16 AA in length, overlapping by 10 AA were tested for their capacity to induce a proliferative response in PBMC from RA patients and healthy controls carrying the DR4 (DRB1*0401) specificity (Table 1).
PBMC obtained from heparinized venous peripheral blood were isolated by standard centrifugation on a Ficoll-Paque gradient. Cells were cultured in four-fold at a concentration of 1,5×10^5 cells/well in medium supplemented with 10% heat-inactivated, autologous plasma, L-glutamine, 2-ME and antibiotics in flatbottomed microtiter plates. Cells were incubated in medium alone or in the presence of phytohaemagglutinin (PHA) (2:5 μg/ml) to assert cell viability, or in the presence of 10 or 100 μg/ml of the HC gp-39-derived peptides. In several cases, sets of 2 or 3 sequential peptides were tested due to limited PBMC numbers of individual donors. Cultures were incubated in a total volume of 210 μl for 7 days at […] in a humidified atmosphere of 5% CO2. Cultures were pulsed during the last 18 hours with 0.25 μCi ^3H-thymidine ([^3H]TdR). Cells were harvested on glassfiber filters and [^3H] TdR incorporation was measured by gas scintillation (Packard Matrix 96 βcounter). Only peptides inducing a proliferative response at both 10 and 100 μg/ml were considered to contain a T-cell epitope. Responses were defined positive if stimulation index values (SI, antigen-specific counts per 5 min (cp5 m)/background cp5 m) exceeded or equaled 2.
T-cell reactivity to HC gp-39-derived peptide as analyzed by measuring the PBMC proliferative response in DR4 (DRB1*0401)-positive RA patients and healthy donors. Proliferative responses were tested in autologous plasma. In Table IIIA and IIIB the results of 7 experiments are presented showing the responses of RA patients (Table IIIA) and the responses of healthy donors (Table IIIB) to 59 overlapping sequences derived from HC gp-39.

[3] = target: T2, DR4 (DRB1*0401) molecules purified from the homozygous EBV-transformed human B lymphoblastoid cell line … (human, UniProt P01903 26-254); test: competition binding assay on purified DR4(DRB1*0401)
T2 construct: mature; That form is inferred from purification of the native complex

binding result [3] | Molecule | Relative affinity of binding to DR4 (DRB1*0401), in words [1] | IC50 [1] [µM] | further results
– | DFQGSFCGQDLRFPLT [compound 57, DFQGSFCGQDLRFPLT] | high to intermediate relative affinity | 1 to 10 | –
– | DIAKISQHLDFISIMT [compound 29, DIAKISQHLDFISIMT] | high to intermediate relative affinity | < 1 | Peptide-induced proliferative response of PBMC, RA 259 ([2]; RA patient 259, 0401, R): pos (positive responses to both 100 and 10 microgram/ml of peptide or sets of peptides (SI≧2 were regarded positive))
– | DLAWLYPGRRDKQHFT [peptide 20, DLAWLYPGRRDKQHFT] | poor relative affinity | 100 to 1000 | Peptide-induced proliferative response of PBMC, RA 286 [2]: pos (positive responses to both 100 and 10 microgram/ml of peptide or sets of peptides (SI≧2 were regarded positive))
– | EICDFLRGATVHRTLG [compound 47, EICDFLRGATVHRTLG] | high to intermediate relative affinity | < 1 | Peptide-induced proliferative response of PBMC, RA 191 [2]: pos (positive responses to both 100 and 10 microgram/ml of peptide or sets of peptides (SI≧2 were regarded positive))
– | GTLAYYEICDFLRGAT [compound 46, GTLAYYEICDFLRGAT] | high to intermediate relative affinity | < 1 | –
– | HGFDGLDLAWLYPGRR [compound 19, HGFDGLDLAWLYPGRR] | high to intermediate relative affinity | 10 to 100 | –
– | NTQSRRTFIKSVPPFL [compound 16, NTQSRRTFIKSVPPFL] | high to intermediate relative affinity | < 1 | Peptide-induced proliferative response of PBMC, RA 286 [2]: pos (positive responses to both 100 and 10 microgram/ml of peptide or sets of peptides (SI≧2 were regarded positive))
– | PASKLVMGIPTFGRSF [compound 39, PASKLVMGIPTFGRSF] | high to intermediate relative affinity | 1 to 10 | –
– | PPFLRTHGFDGLDLAW [compound 18, PPFLRTHGFDGLDLAW] | high to intermediate relative affinity | 10 to 100 | Peptide-induced proliferative response of PBMC, RA 276 ([2]; RA patient 276, 0401, R): pos (positive responses to both 100 and 10 microgram/ml of peptide or sets of peptides (SI≧2 were regarded positive))
– | RGATVHRTLGQQVPYA [compound 48, RGATVHRTLGQQVPYA] | high to intermediate relative affinity | 10 to 100 | –
– | TFIKSVPPFLRTHGFD [compound 17, TFIKSVPPFLRTHGFD] | high to intermediate relative affinity | 1 to 10 | –
– | TIDSSYDIAKISQHLD [compound 28, TIDSSYDIAKISQHLD] | high to intermediate relative affinity | < 1 | –
– | VKSKVQYLKDRQLAGA [compound 53, VKSKVQYLKDRQLAGA] | high to intermediate relative affinity | < 1 | –
– | WALDLDDFQGSFCGQD [compound 56, WALDLDDFQGSFCGQD] | high to intermediate relative affinity | < 1 | Peptide-induced proliferative response of PBMC, RA 191 [2]: pos (positive responses to both 100 and 10 microgram/ml of peptide or sets of peptides (SI≧2 were regarded positive)); Peptide-induced proliferative response of PBMC, RA 286 [2]: pos (positive responses to both 100 and 10 microgram/ml of peptide or sets of peptides (SI≧2 were regarded positive))
– | YREGDGSCFPDALDRF [peptide 3, YREGDGSCFPDALDRF] | high to intermediate relative affinity | 10 to 100 | –
binds | DIAKISQHLDFISIMT [HC gp-39 peptide 29 (residues 190-205)] | – | – | –
binds | PASKLVMGIPTFGRSF [HC gp-39 peptide 39 (residues 250-265)] | – | – | –

binding result [3] | Molecule | Relative affinity of binding to DR4 (DRB1*0401), in words [1] | IC50 [1] [µM] | further results
binds | EICDFLRGATVHRTLG [HC gp-39 peptide 47 (residues 298-313)] | – | – | –
binds | LAGAMVWALDLDDFQG [HC gp-39 peptide 55 (residues 346-361)] | – | – | –
binds | HGFDGLDLAWLYPGRR [HC gp-39 peptide 19 (residues 130-145)] | – | – | –
binds | YREGDGSCFPDALDRF [HC gp-39 peptide 3 (residues 34-49)] | – | – | –
binds | TIDSSYDIAKISQHLD [HC gp-39 peptide 28 (residues 184-199)] | – | – | –
binds | DLAWLYPGRRDKQHFT [HC gp-39 peptide 20 (residues 136-151)] | – | – | –
binds | VKSKVQYLKDRQLAGA [HC gp-39 peptide 53 (residues 334-349)] | – | – | –
binds | GTLAYYEICDFLRGAT [HC gp-39 peptide 46 (residues 292-307)] | – | – | –
binds | NTQSRRTFIKSVPPFL [HC gp-39 peptide 16 (residues 112-127)] | – | – | –
binds | GRSFTLASSETGVGAP [HC gp-39 peptide 41 (residues 262-277)] | – | – | –
binds | PPFLRTHGFDGLDLAW [HC gp-39 peptide 18 (residues 124-139)] | – | – | –
binds | MGIPTFGRSFTLASSE [HC gp-39 peptide 40 (residues 256-271)] | – | – | –
binds | PNLKTLLSVGGWNFGS [HC gp-39 peptide 12 (residues 88-103)] | – | – | –
binds | SPLFRGQEDASPDRFS [HC gp-39 peptide 34 (residues 220-235)] | – | – | –
binds | MLRLGAPASKLVMGIP [HC gp-39 peptide 38 (residues 244-259)] | – | – | –
binds | YTSWSQYREGDGSCFP [HC gp-39 peptide 2 (residues 28-43)] | – | – | –
binds | RGATVHRTLGQQVPYA [HC gp-39 peptide 48 (residues 304-319)] | – | – | –
